The supplement of paper PMC3493320
pIC50: −log10 of the molar value.

Tested on: NCI-H295R
Experiment: IC50 (antiproliferative, ATP content)
Settings: 48 h
Outline: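 Cell viability of adrenocortical carcinoma cells was assessed as ATP by CellTiter-Glo luminescence. Cells at 1500 per well in 1536-well plates, in serum-free DMEM with ITS, received compounds by pin transfer at 8 final concentrations (0.6 nM–46 µM) after overnight culture and were then held 48 h at 37 °C, 5% CO2. IC50 was calculated by logistic fitting against vehicle and positive-control wells, compounds with no concentration response being recorded as above the top dose.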

pIC50	Compound
< 4.34	CN(C)C(=O)Nc1ccc(Cl)c(Cl)c1
< 4.34	O.O=S(=O)([O-])CC(S)CS.[Na+] (configuration not stated)
< 4.34	Cl.O=C(c1ccc(F)cc1)C1CCN(CCn2c(=S)[nH]c3ccccc3c2=O)CC1
< 4.34	CC(C)(Oc1ccc(C2CCCc3ccccc32)cc1)C(=O)O (configuration not stated)
< 4.34	CC(C)C[C@@H](NC(=O)[C@@H](O)[C@H](N)Cc1ccccc1)C(=O)O.Cl
< 4.34	NC(=O)NC(=O)Cc1ccccc1
< 4.34	Oc1cccc(O)c1O
< 4.34	CCCCC[C@H](O)/C=C/[C@H]1[C@H](O)CC(=O)[C@@H]1CCCCCCC(=O)O
< 4.34	O=S(=O)([O-])CCS.[Na+]
< 4.34	CCOC(=O)C1=C(C)NC(C)=C(C(=O)OC)C1c1cccc([N+](=O)[O-])c1 (configuration not stated)
< 4.34	Cc1c(-c2ccccc2)oc2c(C(=O)OCCN3CCCCC3)cccc2c1=O.Cl
< 4.34	Cl.O=C1c2cccc3c2[C@H](CCC3)CN1[C@@H]1CN2CCC1CC2
< 4.34	CC(C)(C)C(=O)NCCCC(=O)O
< 4.34	C[C@@]1(CC2)[C@H](OC(C)=O)C[C@H]2[C@](C)1C
< 4.34	NC(Cc1ccc(Cl)cc1)C(=O)O (configuration not stated)
< 4.34	CC/C=C\C/C=C\C/C=C\C/C=C\C/C=C\C/C=C/CCC(=O)O
< 4.34	N[C@@H]1CONC1=O
< 4.34	CS(=O)(=O)c1ccc([C@@H](O)[C@@H](CO)NC(=O)C(Cl)Cl)cc1
< 4.34	COc1ccc2cc([C@H](C)C(=O)[O-])ccc2c1.[Na+]
< 4.34	C=CC[N+]1([C@H]2C[C@H]3[C@@H]4CC[C@H]5C[C@H](O)[C@@H](N6CCOCC6)C[C@]5(C)[C@H]4CC[C@]3(C)[C@H]2OC(C)=O)CCCC1.[Br-]
< 4.34	CC[C@@H]1C(=O)OC[C@@H]1Cc1cncn1C
< 4.34	CC[N+](CC)(CC)CCOc1ccc(/C=C/c2ccccc2)cc1.[I-]
< 4.34	CCOc1ccc(NC(C)=O)cc1
< 4.34	O=C(O)CCCC/C=C(\c1ccccc1)c1cccnc1
< 4.34	CC(=O)N(CC(O)CN(C(C)=O)c1c(I)c(C(=O)NCC(O)CO)c(I)c(C(=O)NCC(O)CO)c1I)c1c(I)c(C(=O)NCC(O)CO)c(I)c(C(=O)NCC(O)CO)c1I (configuration not stated)
< 4.34	CO[C@H]1O[C@@H]2O[C@@]3(C)CC[C@H]4[C@H](C)CC[C@@H]([C@H]1C)[C@@]24OO3

pIC50	Compound
< 4.34	Cn1c(=O)c2c(ncn2CCO)n(C)c1=O
< 4.34	CCCCCCCCCCCC(=O)OC[C@@H](O)[C@H]1OC[C@H](O)[C@H]1O
< 4.34	CCOC(=O)c1cccnc1
< 4.34	CN1CC(=O)NC1=N
< 4.34	O=C(O)Cc1sc(-c2ccccc2)nc1-c1ccc(Cl)cc1
< 4.34	CN1CCN(C2=Nc3cc(Cl)ccc3Nc3ccccc32)CC1
< 4.34	CC(C)c1ccc2oc3nc(N)c(C(=O)O)cc3c(=O)c2c1
< 4.34	CNCCCCOc1ccccc1Cc1ccccc1
< 4.34	O=[C@](COC(C(C)(C)C)=O)[C@@H]2[C@](CC1)(C)[C@](CC2)([H])[C@@](CC4)([H])[C@@]1([H])[C@](CC3)(C)C4=CC3=O
< 4.34	CCC(C)(Oc1ccc(C2(c3ccc(OC(C)(CC)C(=O)O)cc3)CCCCC2)cc1)C(=O)O (configuration not stated)
< 4.34	N[C@@H](COP(=O)(O)O)C(=O)O
< 4.34	CCCCC[C@H](O)/C=C/[C@@H]1[C@H]2C/C(=C/CCCC(=O)[O-])O[C@H]2C[C@H]1O.[Na+]
< 4.34	Cc1ccc(C(=O)Nc2ccc(S(=O)(=O)O)c3cc(S(=O)(=O)O)cc(S(=O)(=O)O)c23)cc1NC(=O)c1cccc(NC(=O)Nc2cccc(C(=O)Nc3cc(C(=O)Nc4ccc(S(=O)(=O)O)c5cc(S(=O)(=O)O)cc(S(=O)(=O)O)c45)ccc3C)c2)c1
< 4.34	Cn1c(=O)c2c(ncn2CC2OCCO2)n(C)c1=O
< 4.34	CC(C)COC(=O)OCN1C(=O)CN(CCN2CC(=O)N(COC(=O)OCC(C)C)C(=O)C2)CC1=O
< 4.34	CN1C(=O)CN2CCc3ccccc3C2c2cc(Cl)ccc21 (configuration not stated)
< 4.34	CCOC(=S)SSC(=S)OCC
< 4.34	Cl.NC(CO)C(=O)NNCc1ccc(O)c(O)c1O (configuration not stated)
< 4.34	CC[C@H]1OC(=O)[C@H](C)[C@@H](O[C@H]2C[C@@](C)(OC)[C@@H](O)[C@H](C)O2)[C@H](C)[C@@H](O[C@@H]2O[C@H](C)C[C@H](N(C)C)[C@H]2O)[C@](C)(O)C[C@@H](C)C(=O)[C@H](C)[C@@H](O)[C@]1(C)O
< 4.34	NC(CO)(CO)CO
< 4.34	C#CCN(C)Cc1ccccc1.Cl
< 4.34	CNC[C@H](O)[C@@H](O)[C@H](O)[C@H](O)CO
< 4.34	CCc1cc(C(N)=S)ccn1
< 4.34	CN(C)C(=O)C(CCN1CCC(O)(c2ccc(Cl)cc2)CC1)(c1ccccc1)c1ccccc1
< 4.34	CC(=O)O[C@H]1C[C@@]2(C)[C@@H](C[C@@H](O)[C@H]3[C@@]4(C)CC[C@@H](O)[C@@H](C)[C@@H]4CC[C@@]32C)/C1=C(\CCC=C(C)C)C(=O)[O-].[Na+]
< 4.34	Cc1cccc(C)c1NC(=O)CC12CCCN1CCC2

Second part, the molecule before the results:

Compound	pIC50
CC(=O)Nc1ccc(C=NNC(N)=S)cc1	< 4.34
CNC(=O)Oc1cccc2ccccc12	< 4.34
COc1ccc(/C=C/C(=O)O)cc1	< 4.34
O=[C@](O)[C@H]2N(C([C@H](C)N[C@H]([C@@](OCC)=O)CCC3=CC=CC=C3)=O)[C@@]1([H])CCCC[C@@]([H])1C2	< 4.34
CC(=O)SC[C@H](Cc1ccccc1)C(=O)NCC(=O)OCc1ccccc1	< 4.34
O=C(O)c1ccc[n+]([O-])c1	< 4.34
O=C(N1C)N[C@](C1=O)([C@@]2=CC=CC=C2)CC	< 4.34
C[C@H](O)CN(C)C	< 4.34
CC(C)COC(=O)c1ccc(N)cc1	< 4.34
BrC=7Nc1cccc\6c1C=7C[C@@H]2C/6=C/[C@H](CN2C)C(=O)N[C@@]3(O[C@]5(O)N(C3=O)[C@@H](CC(C)C)C(=O)N4CCC[C@H]45)C(C)C	< 4.34
CCCCOC(=O)CC(CC(=O)OCCCC)(OC(C)=O)C(=O)OCCCC	< 4.34
C[C@@H](O)[C@H]1C(=O)N2C(C(=O)O)=C(S[C@@H]3CN[C@H](CNS(N)(=O)=O)C3)[C@H](C)[C@H]12	< 4.34
O=C([O-])c1cc(O)c2c3nc4ccccc4oc-3cc(=O)c2n1.[Na+]	< 4.34
CCN(CC)CCOc1ccccc1OC	< 4.34
CCCCCOC(=O)Nc1nc(=O)n([C@@H]2O[C@H](C)[C@@H](O)[C@H]2O)cc1F	< 4.34
CCCCCCOC(=O)c1cccnc1	< 4.34
CCCCCl	< 4.34
CC(=O)OCC(=O)[C@@]1(OC(C)=O)[C@@H](C)C[C@H]2[C@@H]3C[C@H](F)C4=CC(=O)C=C[C@]4(C)[C@@]3(F)[C@@H](O)C[C@@]21C	< 4.34
Cl.NNc1ccccc1	< 4.34
O=C(O)c1ccc2[nH]cc(CCCCN3CC=C(c4ccccc4)CC3)c2c1	< 4.34
CC[C@H](C)C(=O)O[C@H]1CCC=C2C=C[C@H](C)[C@H](CC[C@@H]3C[C@@H](O)CC(=O)O3)[C@H]21	< 4.34
O=[C@](COC(C)=O)[C@](CC4)(O)[C@]2(C)[C@]4([H])[C@]1([H])CCC([C@@](C=C3)(C)[C@]([H])1[C@@H](O)C2)=CC3=O	< 4.34
S=C(S)N1CCNCC1	< 4.34
Oc1ccc(Cl)cc1Cc1ccccc1	< 4.34
O=C(O)CNC(=O)c1ccccc1	< 4.34

Compound	pIC50
Cn1c(=O)c2c(ncn2C)n(C)c1=O.O=C(O)CC(O)(CC(=O)O)C(=O)O	< 4.34
NS(=O)(=O)c1ccc(NC(=O)CCC(=O)O)cc1	< 4.34
CC=Cc1ccc(O)c(OC)c1	< 4.34
CC(C)=CCC/C(C)=C/CC/C(C)=C/CC/C(C)=C/CC1=C(C)C(=O)c2ccccc2C1=O	< 4.34
C[C@H](N)[C@H](O)c1ccc(O)c(O)c1	< 4.34
CN(C)CCCSc1ccccc1NC(=O)/C=C/c1ccccc1	< 4.34
CC(=O)OCC1=C(C(=O)O)N2C(=O)[C@@H](N)[C@H]2SC1	< 4.34
O=C(c1ccc(F)cc1)C1CCN(CCn2c(=O)[nH]c3ccccc3c2=O)CC1	< 4.34
CCCC(C)(COC(N)=O)COC(=O)NC(C)C (configuration not stated)	< 4.34
C[C@]43CCC(=O)\C=C4\CC[C@@H]1[C@@H]3CC[C@]2(C)[C@@](O)(CC[C@@H]12)C#C	< 4.34
N/C1=N/C(=O)N(/C=N1)[C@@H]2O[C@H](CO)[C@@H](O)[C@H]2O	< 4.34
CCCCCCC[N+](CC)(CC)CCCCc1ccc(Cl)cc1.Cc1ccc(S(=O)(=O)[O-])cc1	< 4.34
C[Se]CCC(N)C(=O)O (configuration not stated)	< 4.34
CCC1(CC)C(=O)NC(=O)NC1=O	< 4.34
CC1=C(/C=C/C(C)=C/C=C/C(C)=C/C(=O)O)C(C)(C)CCC1	< 4.34
CC(=O)NCCCCCC(=O)O	< 4.34
OCCOc1ccccc1	< 4.34
Nc1nc(=O)c2nc(CNc3ccc(C(=O)N[C@@H](CCC(=O)O)C(=O)O)cc3)cnc2[nH]1	< 4.34
CC(CN(C)C)CN1c2ccccc2CCc2ccccc21.O=C(O)/C=C\C(=O)O (configuration not stated)	< 4.34
CN(CCOc1ccc(NS(C)(=O)=O)cc1)CCc1ccc(NS(C)(=O)=O)cc1	< 4.34
CCOC(=O)[C@@H](N)CS.Cl	< 4.34
COc6cc7N1C(=O)CC2OC\C=C5\CN3CC[C@@]4(C1[C@H]2[C@H]5C[C@H]34)c7cc6OC (some centres not stated)	< 4.34
COc1ccc(CCN(C)CCCC(C#N)(c2cc(OC)c(OC)c(OC)c2)C(C)C)cc1OC.Cl (configuration not stated)	< 4.34
CN(C)CCc1c[nH]c2ccc(CS(=O)(=O)N3CCCC3)cc12	< 4.34
Cc1cc(O)c(C(C)C)cc1Cl	< 4.34
